Assay results: patent publication US20260250277A1, “HYDRAZINO GROUP-CONTAINING COMPOUND” (CHIA TAI TIANQING PHARMACEUTICAL GROUP CO., LTD., priority 2022, published 2026)
Read-outs that look alike come from different tables or passages of the source.

Tests used:
[1] = target: ATR/ATPIP (ATR-interacting protein) kinase (Homo sapiens, UniProt Q13535); assay: Inhibitory activity against ATR kinase (p53 substrate, HTRF); type: biochemical
Experimental: (§1) ATR/ATPIP (ATR-interacting protein) kinase solution (concentration: 50 ng/μL) was added to assay wells at 6 μL/well, and different compounds dissolved in DMSO were added to the assay wells separately using a nanoliter pipettor, such that the final concentrations of the compounds were 10000 nM to 2.44 nM. In this experiment, the wells were set in duplicate, and a control well was set. After incubation of the above system for 30 min at room temperature, ATP (5 μM) was mixed with p53 substrate (50 nM) at a ratio of 1:1, and the mixture was added at 4 μL/well. The resulting mixture was left to react at room temperature for 2 h, and then 5 μL of EDTA was added to terminate the reaction, followed by addition of 5 μL of detection antibodies, Mab Anti-phospho p53 and Mab Anti GST-d2 (manufacturer: perkinelmer). The mixture was incubated at room temperature for 1 h. The plate was read using a PerkinElmer Envision multifunctional microplate reader (excitation: 320 nm, emission: 620 nm/665 nm), and IC50 was calculated by four-parameter fitting.

[2] = target: ATM kinase (Homo sapiens, UniProt Q13315); assay: Inhibitory activity against ATM kinase (p53 substrate, HTRF); type: biochemical
Experimental: as §1, with “ATM kinase” for “ATR/ATPIP (ATR-interacting protein) kinase”, “(concentration: 25” for “(concentration: 50”, “ATP (100” for “ATP (5”

[3] = target: DNA-PK (DNA-dependent protein kinase) (Homo sapiens, UniProt P78527); assay: Inhibitory activity against DNA-PK (p53 substrate, HTRF); type: biochemical
Experimental: as §1, with “DNA-PK kinase” for “ATR/ATPIP (ATR-interacting protein) kinase”, “(concentration: 0.15” for “(concentration: 50”, “ATP (100” for “ATP (5”

[4] = In vivo pharmacokinetics (Table 4); conditions: plasma; for MRT last: read-out: MRT(0-t); for Vd: read-out: Vz
[5] = tested on: CHK2 phosphorylation of NCI-H2228 cells; assay: Inhibitory activity against CHK2 phosphorylation of NCI-H2228 cells (p-CHK2 Thr68 AlphaLISA); type: cell-based; conditions: Homo sapiens
Experimental: NCI-H2228 cells in a good growth state were collected, added to a centrifuge tube, adjusted to a cell density of 1.25×10^6 cells/mL, and seeded in a 384-well plate (8 μL/well). The cells were equilibrated in a cell incubator for 1.5 h, and then compounds were added using a nanoliter pipettor, such that the final concentrations of the compounds were 200 nM to 0.049 nM. In this experiment, the wells were set in duplicate, and a control well was set. After the mixture was further cultured for 1 h in the cell incubator, an assay was performed using a p-CHK2 (Thr68) assay kit (manufacturer: perkinelmer) and the Envision microplate reader AlphaLISA program. A four-parameter analysis was performed, a dose-response curve was fit, and IC50 was calculated.

ATM kinase, sequence (Q13315 whole entry): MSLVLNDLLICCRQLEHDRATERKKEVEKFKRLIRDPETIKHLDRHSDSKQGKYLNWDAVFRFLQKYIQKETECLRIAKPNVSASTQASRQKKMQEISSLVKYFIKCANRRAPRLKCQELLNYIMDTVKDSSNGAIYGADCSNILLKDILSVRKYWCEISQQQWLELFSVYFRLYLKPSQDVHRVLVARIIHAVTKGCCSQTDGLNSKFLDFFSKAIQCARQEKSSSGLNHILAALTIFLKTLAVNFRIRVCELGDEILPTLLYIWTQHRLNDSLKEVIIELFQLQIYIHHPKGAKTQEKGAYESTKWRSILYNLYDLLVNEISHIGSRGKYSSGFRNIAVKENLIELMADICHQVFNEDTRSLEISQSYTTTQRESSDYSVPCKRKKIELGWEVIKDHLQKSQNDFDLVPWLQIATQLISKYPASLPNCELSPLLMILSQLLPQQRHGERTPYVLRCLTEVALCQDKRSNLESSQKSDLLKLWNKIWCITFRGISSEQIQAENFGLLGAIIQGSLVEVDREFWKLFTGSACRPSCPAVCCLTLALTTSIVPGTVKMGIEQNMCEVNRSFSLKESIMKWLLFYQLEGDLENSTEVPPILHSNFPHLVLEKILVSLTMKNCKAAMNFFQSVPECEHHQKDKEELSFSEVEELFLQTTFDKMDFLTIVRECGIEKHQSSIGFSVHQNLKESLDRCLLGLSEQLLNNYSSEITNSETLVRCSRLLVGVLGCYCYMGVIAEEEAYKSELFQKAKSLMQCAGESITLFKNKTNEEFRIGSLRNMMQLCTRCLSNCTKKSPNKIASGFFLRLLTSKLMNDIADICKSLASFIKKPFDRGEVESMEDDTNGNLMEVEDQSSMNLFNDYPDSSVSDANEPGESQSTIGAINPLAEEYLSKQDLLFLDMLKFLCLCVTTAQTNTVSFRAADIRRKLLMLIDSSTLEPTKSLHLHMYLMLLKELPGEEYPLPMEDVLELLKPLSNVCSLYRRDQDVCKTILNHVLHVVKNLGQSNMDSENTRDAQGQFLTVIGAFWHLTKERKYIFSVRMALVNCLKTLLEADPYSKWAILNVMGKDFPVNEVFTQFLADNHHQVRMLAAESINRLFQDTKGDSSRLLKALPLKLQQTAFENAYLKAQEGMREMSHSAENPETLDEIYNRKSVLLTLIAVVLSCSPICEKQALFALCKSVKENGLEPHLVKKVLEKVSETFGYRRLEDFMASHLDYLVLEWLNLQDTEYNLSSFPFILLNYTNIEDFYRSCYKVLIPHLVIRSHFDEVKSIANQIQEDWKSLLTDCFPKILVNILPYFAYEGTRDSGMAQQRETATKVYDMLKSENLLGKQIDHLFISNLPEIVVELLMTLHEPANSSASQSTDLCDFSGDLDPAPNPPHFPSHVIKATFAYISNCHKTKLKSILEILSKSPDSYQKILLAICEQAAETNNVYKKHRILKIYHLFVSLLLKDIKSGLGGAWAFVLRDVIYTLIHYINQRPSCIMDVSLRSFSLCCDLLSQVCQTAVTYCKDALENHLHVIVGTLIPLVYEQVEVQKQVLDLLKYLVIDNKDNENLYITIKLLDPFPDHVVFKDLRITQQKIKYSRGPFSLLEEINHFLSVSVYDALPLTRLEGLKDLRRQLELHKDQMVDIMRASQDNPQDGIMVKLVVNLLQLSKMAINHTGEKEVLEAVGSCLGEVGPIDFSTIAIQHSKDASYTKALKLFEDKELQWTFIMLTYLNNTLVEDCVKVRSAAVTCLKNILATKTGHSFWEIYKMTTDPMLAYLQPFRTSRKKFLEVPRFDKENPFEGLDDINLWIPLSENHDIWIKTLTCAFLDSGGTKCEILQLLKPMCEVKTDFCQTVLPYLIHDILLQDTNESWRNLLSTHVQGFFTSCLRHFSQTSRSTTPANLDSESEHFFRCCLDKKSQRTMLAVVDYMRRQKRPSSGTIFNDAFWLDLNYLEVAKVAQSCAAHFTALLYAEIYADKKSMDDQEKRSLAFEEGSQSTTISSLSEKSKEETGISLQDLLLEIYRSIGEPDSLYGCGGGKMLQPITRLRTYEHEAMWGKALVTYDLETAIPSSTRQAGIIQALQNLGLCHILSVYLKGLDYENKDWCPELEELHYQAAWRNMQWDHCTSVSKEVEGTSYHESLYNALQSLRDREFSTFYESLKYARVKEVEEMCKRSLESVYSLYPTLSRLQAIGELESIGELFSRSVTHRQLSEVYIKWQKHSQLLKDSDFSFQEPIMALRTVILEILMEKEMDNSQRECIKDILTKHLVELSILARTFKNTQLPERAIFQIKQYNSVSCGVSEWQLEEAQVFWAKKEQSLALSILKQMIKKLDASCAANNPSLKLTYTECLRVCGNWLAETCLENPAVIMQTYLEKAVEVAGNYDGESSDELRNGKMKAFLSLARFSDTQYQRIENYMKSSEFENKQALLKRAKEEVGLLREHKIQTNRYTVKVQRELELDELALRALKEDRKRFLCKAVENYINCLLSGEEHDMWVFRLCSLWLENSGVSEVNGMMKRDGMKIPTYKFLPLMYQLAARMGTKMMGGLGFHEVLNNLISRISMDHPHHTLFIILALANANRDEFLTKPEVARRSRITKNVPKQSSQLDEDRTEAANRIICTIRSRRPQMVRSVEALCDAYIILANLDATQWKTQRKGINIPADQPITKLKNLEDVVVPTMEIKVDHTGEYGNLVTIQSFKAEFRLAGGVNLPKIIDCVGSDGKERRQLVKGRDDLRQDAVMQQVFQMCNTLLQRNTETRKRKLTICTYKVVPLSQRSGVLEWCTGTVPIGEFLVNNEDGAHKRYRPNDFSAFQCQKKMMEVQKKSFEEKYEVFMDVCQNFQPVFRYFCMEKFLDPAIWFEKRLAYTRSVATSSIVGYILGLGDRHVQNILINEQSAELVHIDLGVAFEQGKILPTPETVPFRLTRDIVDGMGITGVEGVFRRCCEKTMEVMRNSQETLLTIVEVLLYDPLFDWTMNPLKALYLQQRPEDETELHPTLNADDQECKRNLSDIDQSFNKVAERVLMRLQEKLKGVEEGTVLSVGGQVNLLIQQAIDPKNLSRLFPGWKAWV

IC50 [1] [nM]	IC50 [2] [nM]	IC50 [3] [nM]	AUC(0-inf) ([4]; iv, 1 mg/kg) [ng·h/mL]	AUC(0-t) ([4]; iv, 1 mg/kg) [ng·h/mL]	half-life ([4]; iv, 1 mg/kg) [h]	MRT last ([4]; iv, 1 mg/kg) [h]	Vd ([4]; iv, 1 mg/kg) [L/kg]	AUC(0-inf) ([4]; po, IG, 10 mg/kg) [ng·h/mL]	AUC(0-t) ([4]; po, IG, 10 mg/kg) [ng·h/mL]	Cmax ([4]; po, IG, 10 mg/kg) [ng/mL]	Tmax ([4]; po, IG, 10 mg/kg) [h]	half-life ([4]; po, IG, 10 mg/kg) [h]	MRT last ([4]; po, IG, 10 mg/kg) [h]	IC50 [5] [nM]	SMILES
> 1000	< 50	> 1000	474	451	2.05	1.84	4.82	4000	3980	485	4	3.07	4.72	< 50	Nn1c(=O)n(C2CC2)c2c3cc(-c4ccc(OCCCN5CCCC5)nc4)c(F)cc3ncc21 [Example 19]
> 1000	< 50	> 1000	460	445	1.74	2.1	5.45	4330	4250	495	1	4.01	6.05	< 50	CC(C)n1c(=O)n(N)c2cnc3cc(F)c(-c4ccc(OCCCN5CCCC5)nc4)cc3c21 [Example 3]
821	< 50	> 1000	539	521	1.7	2.11	4.55	4270	4150	521	0.5	4.59	6.1	< 50	CC(C)n1c(=O)n(N)c2cnc3cc(F)c(-c4ccc(OCCCN5CCCCC5)nc4)cc3c21 [Example 2]
> 1000	< 50	> 1000	624	587	2.17	1.89	3.9	4500	4460	506	4	3.51	4.99	< 50	Nn1c(=O)n(C2CC2)c2c3cc(-c4ccc(OCCCN5CCCCC5)nc4)c(F)cc3ncc21 [Example 18]
